Assay results as given in patent US7601683B2, “Protein conformational isomers, methods of making, methods for using, compositions comprising and products made therewith” (Board of Regents of the University of Texas System, priority 2001, dated 2009).
Read-outs that look alike come from different tables or passages of the source.

Biological target: tick anticoagulant peptide (TAP) (Ornithodoros moubata, UniProt P17726)
Sequence (P17726 whole entry): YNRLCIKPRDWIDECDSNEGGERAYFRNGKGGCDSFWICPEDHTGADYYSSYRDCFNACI

[Cl-].[Na+] [NaCl]
reduction of the extent of denaturation of TAP by 8M urea (in the presence of 0.5 M NaCl): 23% | reduction of the extent of denaturation of TAP by 8M urea (in the presence of 1M NaCl): 50% | reversal of the structure of denatured TAP (in the presence of urea, after addition of the protein stabilizer (FIG. 7 column 3)): converts back to the native structure
